Data taken from the NIST ThermoML archive (doi:10.1016/j.fluid.2007.08.013).
“And” between values parts separate entries of the source, which are not always exact repeats. Equal entries are not always repeated.

Test: activity coefficient (dimensionless); of the first substance listed, at infinite dilution; xn = mol fraction of the nth substance listed
Conditions: Liquid, x1 = 0

C1COCCO1 [1,4-dioxane] + O
Conditions | activity coefficient
273.35 K, relative headspace analysis | 3.53
278.15 K, relative headspace analysis | 4
288.15 K, headspace analysis | 5.17
288.15 K, relative headspace analysis | 4.75
298.15 K, headspace analysis | 5.88
308.15 K, headspace analysis | 6.7
308.15 K, relative headspace analysis | 6.15
318.15 K, relative headspace analysis | 6.82
328.15 K, non steady state GLC | 7.76
338.15 K, Chromatography | 8.22
338.15 K, non steady state GLC | 8.27
348.15 K, rayleigh distillation | 8.43
372.5 K, circulation still | 10.3

C1COCO1 [1,3-dioxolane] + O
Conditions | activity coefficient
273.35 K, relative headspace analysis | 8.13
278.15 K, relative headspace analysis | 8.48
288.15 K, relative headspace analysis | 9.12
298.15 K, relative headspace analysis | 9.71
308.15 K, relative headspace analysis | 10.2
318.15 K, Chromatography | 10.6
328.15 K, Chromatography | 10.9
338.15 K, non steady state GLC | 11 and 11.4
348.15 K, Rayleigh distillation | 11.3
372.55 K, circulation still | 11.2

CCOCC [diethyl ether] + O
Chromatography
Conditions | activity coefficient
273.35 K | 33.9
278.15 K | 41.2
283.15 K | 49.4
288.15 K | 58.5
293.15 K | 68.6
298.15 K | 77.1
303.15 K | 88.8
308.15 K | 98.8
318.15 K | 121
328.15 K | 140

COCCOC [1,2-dimethoxyethane] + O
Conditions | activity coefficient
318.15 K, Chromatography | 7.25
328.15 K, non steady state GLC | 9.12 and 8.81
338.15 K, non steady state GLC | 11.2 and 11.1
348.15 K, Rayleigh distillation | 12.2
372.5 K, circulation still | 14.9

C1CCOC1 [tetrahydrofuran] + O
Conditions | activity coefficient
273.35 K, classical headspace analysis | 9.74
278.15 K, classical headspace analysis | 11.1
288.15 K, Chromatography | 14.3
298.15 K, Chromatography | 17.6
308.15 K, Chromatography | 20.6
318.15 K, Chromatography | 24
328.15 K, non steady state GLC | 26.8 and 28.1

C1CCOCC1 [tetrahydropyran] + O
activity coefficient
Conditions | 273.35 K | 283.15 K | 288.15 K | 298.15 K | 308.15 K | 318.15 K | 328.15 K
Chromatography | – | – | 58 | 70.5 | 83.4 | 96.2 | 108
relative headspace analysis | 39.6 | 44.9 | – | – | – | – | –

COCOC [dimethoxymethane] + O
Chromatography
Conditions | activity coefficient
273.35 K | 10.8
283.15 K | 13.7
293.15 K | 15.6
298.15 K | 16.9
303.15 K | 18
313.15 K | 19.9
323.15 K | 22
333.15 K | 23.9
